Source: patent USRE42890E1, “Furazanobenzimidazoles” (Basilea Pharmaceutica AG, priority 2003, dated 2011)

Key:
[1] = tested on: Jurkat; experiment: MTS proliferation assay, Jurkat; type: cell-based, human; details: 72 h incubation, read-out: MTS proliferation assay IC 50 Jurkat
Procedure, shortened: (§1)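 Absorbance at 492 nm after 3 h with MTS reagent gave the proliferation read-out. Before that, cells in RPMI-1640 complete medium (5% or 10% FCS) were treated 72 h with compound at four final concentrations, 0.3 to 10 μM.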

[2] = tested on: adherent cells or suspension cells; experiment: Hoechst 33342 nuclear staining (fraction of apoptotic nuclei); type: cell-based; parameters: key: 0 relating to no activity; 1 relating to weak activity comprising less than 70% of the cells; score 2 relating to strong activity comprising more than 70% of the cells
[3] = tested on: HeLa; experiment: MTS proliferation assay, HeLa; type: cell-based, human; details: 72 h incubation, read-out: MTS proliferation assay IC 50 HeLa
Procedure, shortened: as §1

[4] = tested on: Jily; experiment: MTS proliferation assay, Jily; type: cell-based; details: 72 h incubation, read-out: MTS proliferation assay IC 50 Jily
Procedure, shortened: (§2)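 Read-out: MTS absorbance at 492 nm after 3 h reagent incubation. Before that, cells grew 72 h at 37° C/7.5% CO2 with test compounds at final concentrations of 10 μM, 3 μM, 1 μM and 0.3 μM, added 24 h post-seeding.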

[5] = tested on: HT1080; experiment: MTS proliferation assay, HT1080; type: cell-based, human; details: HT1080, 72 h incubation; read-out: MTS proliferation assay IC 50 HT1080
Procedure, shortened: as §1

[6] = tested on: MRC5; experiment: MTS proliferation assay, MRC5; type: cell-based; details: MRC5, 72 h incubation; read-out: MTS proliferation assay IC 50 MRC5
Procedure, shortened: as §2

Compound | IC50 [1] [nM] | Hoechst 33342 nuclear staining score ([2]; HeLa, conc 0.01 μm) | Hoechst 33342 nuclear staining score ([2]; HeLa, conc 0.1 μm) | Hoechst 33342 nuclear staining score ([2]; HeLa, conc 1 μm) | Hoechst 33342 nuclear staining score ([2]; Jily, conc 0.01 μm) | Hoechst 33342 nuclear staining score ([2]; Jily, conc 0.1 μm) | Hoechst 33342 nuclear staining score ([2]; Jily, conc 1 μm) | Hoechst 33342 nuclear staining score ([2]; Jurkat, conc 0.01 μm) | Hoechst 33342 nuclear staining score ([2]; Jurkat, conc 0.1 μm) | Hoechst 33342 nuclear staining score ([2]; Jurkat, conc 1 μm) | Hoechst 33342 nuclear staining score ([2]; MRC5, conc 0.01 μm) | Hoechst 33342 nuclear staining score ([2]; MRC5, conc 0.1 μm) | Hoechst 33342 nuclear staining score ([2]; MRC5, conc 1 μm) | Hoechst 33342 nuclear staining score ([2]; PBLs, conc 0.01 μm) | Hoechst 33342 nuclear staining score ([2]; PBLs, conc 0.1 μm) | Hoechst 33342 nuclear staining score ([2]; PBLs, conc 1 μm) | IC50 [3] [nM] | IC50 [4] [nM] | IC50 [5] [nM] | IC50 [6] [nM] | also measured
Nc1nonc1-c1nc2ccccc2n1COc1ccc(Cl)cc1 [Example 88] | 100 to 1000 | 0 | 0 | 2 (score 2 relating to strong activity comprising more than 70% of the cells) | 0 | 0 | 1 (1 relating to weak activity comprising less than 70% of the cells) | 0 | 0 | 2 (score 2 relating to strong activity comprising more than 70% of the cells) | 0 | 0 | 0 | 0 | 0 | 0 | 100 to 1000 | 100 to 1000 | 100 to 1000 | 100 to 1000 | 
Nc1nonc1-c1nc2ccccc2n1COc1ccc(Br)cc1 [Example 89] | 10 to 100 | 0 | 2 (score 2 relating to strong activity comprising more than 70% of the cells) | 2 (score 2 relating to strong activity comprising more than 70% of the cells) | 0 | 2 (score 2 relating to strong activity comprising more than 70% of the cells) | 2 (score 2 relating to strong activity comprising more than 70% of the cells) | 0 | 2 (score 2 relating to strong activity comprising more than 70% of the cells) | 2 (score 2 relating to strong activity comprising more than 70% of the cells) | 0 | 2 (score 2 relating to strong activity comprising more than 70% of the cells) | 2 (score 2 relating to strong activity comprising more than 70% of the cells) | 0 | 0 | 0 | 10 to 100 | 10 to 100 | 10 to 100 | 100 to 1000 | Hoechst 33342 nuclear staining score ([2]; H460, conc 0.01 μm): 0; Hoechst 33342 nuclear staining score ([2]; H460, conc 0.1 μm): 2 (score 2 relating to strong activity comprising more than 70% of the cells); Hoechst 33342 nuclear staining score ([2]; H460, conc 1 μm): 2 (score 2 relating to strong activity comprising more than 70% of the cells)
